The values below come from ChEMBL document CHEMBL3593192, “Synthesis and biological evaluation of novel histone deacetylases inhibitors with nitric oxide releasing activity” (Bioorg Med Chem, 2015).

One experiment concerns U-937. Put plainly: Cytotoxicity against human U937 cells assessed as inhibition of cell proliferation after 48 hrs by MTT assay. It counts as functional, cell-based. The settings on record: U-937, 48 h. For orientation: Formazan colour is commonly taken as a measure of viable cells.
Experiment [1] deals with Histone deacetylase (HDAC1 and HDAC2) (Homo sapiens, UniProt Q13547+Q92769). Nature of the experiment: Inhibition of HDAC1/2 in human HeLa cells using Boc-Lys (acetyl)-AMC as substrate preincubated for 30 mins followed by substrate addition measured after 30 mins by fluorescence assay. It counts as cell-based.
In experiment [2] the test system is HCT-116. Put plainly: cells. It counts as functional, cell-based. The following applies: Homo sapiens, HCT-116, 48 h.
The next experiment relates to B16. Put plainly: cells. The following applies: Mus musculus, B16, 48 h. It counts as functional, cell-based.
A further experiment relates to PC-3. Nature of the experiment: cells. It counts as functional, cell-based. The following applies: Homo sapiens, PC-3, 48 h.
Another experiment concerns HeLa. Nature of the experiment: cells. The experiment is classed as functional, cell-based. The settings on record: Homo sapiens, 48 h.
Another experiment deals with HEL. Put plainly: cells. It counts as functional, cell-based. The settings on record: Homo sapiens, 48 h.
The nature of experiment [3]: cells. The settings on record: Homo sapiens, KG-1, 48 h. It counts as functional, cell-based.
Description: Cytotoxicity against human KG1 cells assessed as inhibition of cell proliferation after 48 hrs by MTT assay
Experiment [4] in a line: cells. The experiment is classed as functional, cell-based, ES2. The settings on record: Homo sapiens, ES-2, 48 h.
Description: Cytotoxicity against human ES2 cells assessed as inhibition of cell proliferation after 48 hrs by MTT assay
Experiment [5] has as its system HCT-116. Nature of the experiment: Cytotoxicity against human HCT116 cells assessed as inhibition of cell proliferation after 48 hrs by MTT assay in presence of SAHA. The experiment is classed as functional, cell-based. The following applies: HCT-116, 48 h.
The test system of experiment [6] is HCT-116. Put plainly: Induction of nitric oxide production in human HCT116 cells at 100 uM after 5 hrs by Griess assay. It counts as functional, cell-based. Background: The Griess reaction detects nitrite, a stable product of nitric oxide.
In experiment [7] the test system is HCT-116. Put plainly: Cytotoxicity against nitric oxide scavenger hemoglobin-treated human HCT116 cells assessed as inhibition of cell proliferation at 2 uM after 24 hrs by MTT assay. It counts as functional, cell-based.

Usually IC50 stands for the concentration needed to halve the response being measured.

The structures appear in SMILES notation. Active and inactive are the calls of the source. The calls are words filed in the database; no cut-off is given here. A value given as a limit tells only on which side of the number the result lay.

Description for B16: Cytotoxicity against mouse B16 cells assessed as inhibition of cell proliferation after 48 hrs by MTT assay
Description for HeLa: Cytotoxicity against human HeLa cells assessed as inhibition of cell proliferation after 48 hrs by MTT assay
Description for PC-3: Cytotoxicity against human PC3 cells assessed as inhibition of cell proliferation after 48 hrs by MTT assay

As for `O=C(CCCCCCC(=O)Nc1ccccc1)NO` [VORINOSTAT], the half-maximal inhibitory concentration (IC50) in the experiment on U-937 was 4.82 µM.

Turning to `O=C(CCCCOC(=O)c1cccc2c1no[n+]2[O-])NO`, the half-inhibitory concentration (IC50) in experiment [1] came to 0.2576 µM; with HCT-116 [2], 2.73 µM; in the experiment on U-937, 11.3 µM; in the experiment on B16, 30.5 µM; in the experiment with PC-3, 14.2 µM; in the experiment with HeLa, 20.2 µM. For the same compound, the half-maximal inhibitory concentration (IC50) stood at 3.14 µM in the experiment with HEL, 6.69 µM in “cells [3]” and 44.4 µM in “cells [4]”.

With `O=C(CCCOC(=O)c1ccc2c(c1)no[n+]2[O-])NO`, the IC50 in experiment [1] was determined as 5.5697 µM; in the experiment on HCT-116 [2] it was 2.06 µM; in the experiment with U-937, 13 µM; with B16, 22.2 µM; in the experiment with PC-3, 6.58 µM; with HeLa, 17 µM. The IC50 was 2.09 µM with HEL, 4.02 µM in “cells [3]” and 27.1 µM in “cells [4]”.

For the compound `O=C(O)c1ccc2c(c1)no[n+]2[O-]`, the results for the IC50 (in experiment [1]; in the experiment with HCT-116 [2]; with HCT-116 [5]) were greater than 1000 µM, 55.8 µM and 11.5 µM, respectively. For the same compound, the outcome in the experiment on HCT-116 [6] was Active.

As for `O=C(CCCCOC(=O)c1ccc2c(c1)no[n+]2[O-])NO`, the IC50 amounted to 2.207 µM in experiment [1]; 2.63 µM with HCT-116 [2]; 19.9 µM with U-937; 24 µM in the experiment on B16; 12.7 µM in the experiment on PC-3; 15.9 µM in the experiment on HeLa. For the same compound, the IC50 with HEL came out at 1.21 µM; in “cells [3]”, 8.19 µM; in the experiment “cells [4]”, 25 µM.

As for `O=C(CCCCCCOC(=O)c1cccc2c1no[n+]2[O-])NO`, the half-maximal inhibitory concentration (IC50) amounted to 0.0128 µM in [1]; 1.09 µM with HCT-116 [2]; 34.6 µM in the experiment with U-937; 18.2 µM in the experiment with B16; 9.37 µM in the experiment with PC-3; 27.2 µM in the experiment with HeLa. The concentration for half-maximal inhibition (IC50) in the experiment on HEL came out at 3.71 µM; in the experiment “cells [3]”, 2.98 µM; in “cells [4]”, 21.2 µM. Also, the outcome with HCT-116 [6] was Active. In addition, in the experiment with HCT-116 [7], the inhibition result is “inactive”.

As for `O=C(CCCOC(=O)c1cccc2c1no[n+]2[O-])NO`, the IC50 in experiment [1] was 6.8072 µM; with HCT-116 [2], 16.2 µM; with U-937, 53.9 µM; in the experiment on B16, greater than 80 µM; with PC-3, 13.4 µM; with HeLa it was 72 µM. Also, the IC50 amounted to 6.6 µM with HEL, 12.4 µM in the experiment “cells [3]” and 73.8 µM in “cells [4]”.

As to `O=C(CCCCCOC(=O)c1ccc2c(c1)no[n+]2[O-])NO`, the IC50 is 0.437 µM in [1]; 3.36 µM in the experiment on HCT-116 [2]; 33.4 µM in the experiment with U-937; 30.2 µM in the experiment on B16; 12.4 µM in the experiment with PC-3; 17.3 µM with HeLa. Besides, the IC50 with HEL is 11.6 µM; in the experiment “cells [3]”, 3.69 µM; in “cells [4]”, 20.6 µM. The outcome in the experiment with HCT-116 [6] was Active.

Consider `O=C(CCCCCOC(=O)c1cccc2c1no[n+]2[O-])NO`, for which the IC50 in experiment [1] stood at 0.017 µM; in the experiment with HCT-116 [2], 2.81 µM; with U-937, 21.6 µM; in the experiment with B16, 27.9 µM; in the experiment on PC-3, 16.9 µM; with HeLa, 42.1 µM. Moreover, the IC50 in the experiment on HEL was found to be 3.74 µM; in the experiment “cells [3]”, 12.4 µM; in “cells [4]”, 66.3 µM. Besides, the result in the experiment on HCT-116 [6] was Active.

Turning to `O=C(CCCCCCCOC(=O)c1ccc2c(c1)no[n+]2[O-])NO`, the IC50 in experiment [1] amounted to 0.1804 µM; with HCT-116 [2], 2.29 µM; with U-937, 11.9 µM; in the experiment on B16, 7.99 µM; in the experiment with PC-3, 1.39 µM; with HeLa it was 5.31 µM. Besides, the IC50 was found to be 1.5 µM in the experiment on HEL, 5.21 µM in the experiment “cells [3]” and 9.23 µM in “cells [4]”. For the same compound, in the experiment with HCT-116 [6], the outcome was Active.

On to `O=C(CCCCCCCOC(=O)c1cccc2c1no[n+]2[O-])NO`, for which the half-inhibitory concentration (IC50) in experiment [1] is 0.1373 µM; with HCT-116 [2], greater than 80 µM; with U-937 it was greater than 80 µM; with B16, greater than 80 µM; in the experiment on PC-3 it was greater than 80 µM; with HeLa it was 34.2 µM. In addition, the values for the concentration for half-maximal inhibition (IC50) with HEL, in the experiment “cells [3]” and in “cells [4]” were 12.1 µM, 0.53 µM and greater than 80 µM, respectively.

For `O=C(CCCCCCOC(=O)c1ccc2c(c1)no[n+]2[O-])NO`, the IC50 in [1] was 0.0184 µM; in the experiment with HCT-116 [2], 1.09 µM; in the experiment on U-937, 12.4 µM; in the experiment with B16 it was 4.97 µM; in the experiment on PC-3, 0.95 µM; in the experiment on HeLa, 9.18 µM. For the same compound, the IC50 in the experiment on HEL was 1.26 µM; in the experiment “cells [3]” it was 0.37 µM; in the experiment “cells [4]”, 5.07 µM. In addition, the outcome with HCT-116 [6] was Active. Further, the inhibition result in the experiment with HCT-116 [7] was “inactive”.

Take `O=C(O)c1cccc2c1no[n+]2[O-]`: the 50% inhibitory concentration (IC50) is greater than 1000 µM in experiment [1], 64 µM in the experiment on HCT-116 [2] and 8.52 µM in the experiment on HCT-116 [5]. Also, the result in the experiment with HCT-116 [6] was Active.
